Assay results: patent US20100093018A1, “CELLS […] PROTEINS AND ASSAYS USING SUCH CELLS” (ACHILLION PHARMACEUTICALS, INC., priority 2007, published 2010)

Key:
[1] = system: NI-1^R (S282T); experiment: Susceptibility of NI-1 resistant replicon cell line; type: cell-based, hepatitis C virus; settings: NI-1^R (S282T) versus Huh-9-13
[2] = system: Luc/Parent replicon; experiment: Luciferase replicon susceptibility, parent; type: cell-based; settings: Hepatitis C virus, Luc/Parent replicon in Huh-7 cells, two independent experiments
Experimental: (§1) To investigate the genetic basis of resistance to ACH-806 in the resistant replicon cellular lines, specifically the role of C16S and A39V in NS3, and 1585T 1 in NS5B, we introduced these mutations separately into a nonselectable replicon containing a luciferase reporter gene. Following the transfection of the parental replicon RNA molecule and the C16S, A39V and I585T variant replicon RNA molecules into Huh-7 cells, the replication capacity of all replicons was determined as described in Method and Materials. Replicon RNA carrying the A39V mutation replicated as efficiently as its parent, whereas the C16S and I585T mutations caused a slight decrease in the replication capacity (about 75% that of the parental replicon). The susceptibility of these four replicons to ACH-806 as well as to other classes of inhibitors was compared side by side, and the results are summarized in Table 2.

[3] = system: NM107^R (S282T); experiment: Susceptibility of NM107 resistant replicon cell line; type: cell-based, hepatitis C virus; settings: NM107^R (S282T) versus Huh-9-13
[4] = system: VX-950^R (A156T); experiment: Susceptibility of VX-950 resistant replicon cell line; type: cell-based, hepatitis C virus; settings: VX-950^R (A156T) versus Huh-9-13
[5] = system: Luc/NS3-4A^R(S16) replicon; experiment: Fragment-cloned luciferase replicon susceptibility, S16; type: cell-based; settings: Hepatitis C virus
Text: A third approach, fragment cloning, was used to reinforce the role of the C16S mutation and to exclude the role of other nonconsensus mutations in conferring resistant to ACH-806. A ˜3 kb fragment covering the coding region of NS3, NS4A, and part of NS4B was amplified by RT-PCR from total RNA isolated from ACH-806 resistant clone #28. The PCR product was cloned into the nonselectable replicon containing a luciferase reporter gene. Replicon RNA molecules were made from eight individual clones and were transfected into Huh-7 cells to determine the replication capacity by luciferase activity. From the eight clones, two were able to replicate efficiently and sequencing of the entire cloned fragment in these two clones confirmed the existence of C16S mutation in addition to other nonconsensus mutations. The serine at the amino acid residue of NS3 in one of these two clones was then converted back to cysteine using site-directed mutagenesis, leaving other nonconsensus mutations unchanged. The replication capacity of this resulting replicon [Luc/N3-4AR(C16)] was 95% that of its parent [Luc/N3-4AR(S16)] determined as previously described. After transfection into Huh-7 cells, the susceptibility of both replicons was compared. […]

[6] = system: NNI-1^R (M414T); experiment: Susceptibility of NNI-1 resistant replicon cell line; type: cell-based, hepatitis C virus; settings: NNI-1^R (M414T) versus Huh-9-13
[7] = system: Luc/NS5B-I585T; type: cell-based, hepatitis C virus
Experimental: as §1

[8] = system: HCV replicon; experiment: HCV replicon assay (Example 1); type: cell-based; settings: Hepatitis C virus; Huh-7 cells expressing the HCV replicon
Experimental: The ability to inhibit viral replication of Hepatitis C can be tested using the HCV replicon expressed in cultured cells in which an HCV replicon construct has been incorporated. The HCV replicon system was described by Bartenschlager, et. al (Science, 285, pp. 110-113, 1999). The replicon system is predictive of in vivo activity against HCV; compounds that are active in humans uniformly evidence activity in the replicon assay.
In this assay HCV replicon containing cells are treated with different concentrations of the test compound to ascertain the ability of the test compound to suppress replication of the HCV replicon. As a positive control, HCV replicon-containing cells are treated with different concentrations of interferon alpha, a known inhibitor of HCV replication. The replicon assay system includes Neomycin Phosphotransferase (NPT) as a component of the replicon itself as a marker allowing convenient detection of the transcription of replicon gene products in the host cell. Cells in which the HCV replicon is actively replicating have high levels of NPT; the level of NPT is proportional to HCV replication. […] The NPT level of each sample may be measured using a captured ELISA. […]
HCV replicon-containing cells are examined under a microscope to ensure that cells growing well. […] The cells are counted. […]

[9] = system: Luc/NS3-C16S replicon; experiment: Luciferase replicon susceptibility, NS3 C16S; type: cell-based, hepatitis C virus
Experimental: as §1

[10] = system: replicon variants carrying either the C16S or A39V mutation; experiment: Summary of three approaches on mutant replicon variants; type: cell-based, hepatitis C virus; settings: all three approaches
Experimental: To investigate the genetic basis of resistance to ACH-806 in the resistant replicon cellular lines, specifically the role of C16S and A39V in NS3, and 1585T 1 in NS5B, we introduced these mutations separately into a nonselectable replicon containing a luciferase reporter gene. Following the transfection of the parental replicon RNA molecule and the C16S, A39V and I585T variant replicon RNA molecules into Huh-7 cells, the replication capacity of all replicons was determined as described in Method and Materials. […]
To further confirm the role of C16S and A39V in conferring resistance to ACH-806, we introduced both mutations, separately, into a selectable replicon which carries the neo gene and the adaptive mutations that differ from the nonselectable replicon. Following transfection of the parental replicon RNA, the C16S replicon RNA and A39V replicon RNA into Huh-7 cells, the susceptibility of these three replicons to ACH-806, as evaluated by the number of colonies formed under the treatment of both G418 and ACH-806, was compared side by side. […]
A third approach, fragment cloning, was used to reinforce the role of the C16S mutation and to exclude the role of other nonconsensus mutations in conferring resistant to ACH-806. […] The replication capacity of this resulting replicon [Luc/N3-4AR(C16)] was 95% that of its parent [Luc/N3-4AR(S16)] determined as previously described. […]

[11] = system: Luc/NS3-4A^R(C16) replicon; experiment: Fragment-cloned luciferase replicon susceptibility, C16 revertant; type: cell-based, hepatitis C virus
Text: A third approach, fragment cloning, was used to reinforce the role of the C16S mutation and to exclude the role of other nonconsensus mutations in conferring resistant to ACH-806. A ˜3 kb fragment covering the coding region of NS3, NS4A, and part of NS4B was amplified by RT-PCR from total RNA isolated from ACH-806 resistant clone #28. The PCR product was cloned into the nonselectable replicon containing a luciferase reporter gene. Replicon RNA molecules were made from eight individual clones and were transfected into Huh-7 cells to determine the replication capacity by luciferase activity. From the eight clones, two were able to replicate efficiently and sequencing of the entire cloned fragment in these two clones confirmed the existence of C16S mutation in addition to other nonconsensus mutations. The serine at the amino acid residue of NS3 in one of these two clones was then converted back to cysteine using site-directed mutagenesis, leaving other nonconsensus mutations unchanged. The replication capacity of this resulting replicon [Luc/N3-4AR(C16)] was 95% that of its parent [Luc/N3-4AR(S16)] determined as previously described. After transfection into Huh-7 cells, the susceptibility of both replicons was compared. The reversion of serine back to cysteine at amino acid residue 16 of NS3 increased the susceptibility of the replicon to ACH-806 about 10 fold and maintained the susceptibility to other classes of HCV inhibitors (Table 3). Similar results were also obtained with a fragment containing NS3, 4A and part of 4B derived from a resistant cell line carrying A39V mutation (data not shown).

[12] = system: BILN 2061^R (D168V); experiment: Susceptibility of BILN 2061 resistant replicon cell line; type: cell-based, hepatitis C virus; settings: BILN 2061^R (D168V) versus Huh-9-13
[13] = system: C16S or A39V replicon variant; experiment: Colony formation with selectable replicon under G418 and ACH-806; type: cell-based, hepatitis C virus; settings: C16S or A39V versus parental selectable replicon
Text: To further confirm the role of C16S and A39V in conferring resistance to ACH-806, we introduced both mutations, separately, into a selectable replicon which carries the neo gene and the adaptive mutations that differ from the nonselectable replicon. Following transfection of the parental replicon RNA, the C16S replicon RNA and A39V replicon RNA into Huh-7 cells, the susceptibility of these three replicons to ACH-806, as evaluated by the number of colonies formed under the treatment of both G418 and ACH-806, was compared side by side. Again, an approximately 10-fold reduction in the susceptibility of C16S or A39V replicon variant to ACH-806 was observed.

[14] = system: parental replicon cellular line, Huh-9-13; experiment: Susceptibility of parental replicon cellular line; type: cell-based, hepatitis C virus; settings: for EC50: Hepatitis C virus, read-out: EC50 ± SD
[15] = system: Luc/NS3-A39V replicon; experiment: Luciferase replicon susceptibility, NS3 A39V; type: cell-based, hepatitis C virus
Experimental: as §1

[16] = target: T1, replicase complex (Hepatitis C virus genotype 1b, UniProt Q9WMX2); experiment: Replicase activity in treated replicon cells (FIG. 3); type: cell-based; settings: 16 hour treatment of replicon cells, concentrations as low as 50 μM
T1 construct: expressed in transfected cells; host or cells: HCV replicon cells (Huh-7 derived)
T1 sequence (Q9WMX2 1658-1711 limits assumed): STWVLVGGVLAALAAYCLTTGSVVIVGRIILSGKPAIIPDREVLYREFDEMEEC
Text: FIG. 3. ACH-806 is a potent inhibitor of functional replicase complex production.

[17] = system: ACH-806 resistant replicon cellular lines (806R); experiment: Susceptibility of ACH-806 resistant replicon cellular lines; type: cell-based, hepatitis C virus; settings: for Fold change in EC50: versus Huh-9-13
[18] = target: the molecule itself; experiment: anti-NS4A immunoprecipitation and immunoblot of replicon cells or NS4A-transfected cells; dimer promoted by the compound ACH-806
[19] = target: the molecule itself; experiment: Western blot of transfected cell lysate, treated with ACH-806

CCCCCOc1ccc(NC(=S)NC(=O)c2cccnc2)cc1C(F)(F)F [ACH-806, 1-nicotinoyl-3-(4-(pentyloxy)-3-(trifluoromethyl)phenyl)thiourea]
Fold change in EC50 [1]: 0.8 | EC50 ([2]; read-out: Potency EC50): 10 ± 10 nM | EC90 ([2]; read-out: Potency EC90): 80 ± 10 nM | Fold change in EC50 [3]: 0.5 | Fold change in EC50 [4]: 0.6 | EC50 [5]: 270 ± 40 nM | EC90 [5]: 2350 ± 240 nM | Fold change in EC50 [6]: 0.9 | Fold change in potency, EC50 [7]: 0.7 ± 0.1 | Fold change in potency, EC90 [7]: 1.1 ± 0.1 | EC50 [8]: 14 nM | Fold change in potency, EC50 ([9]; Luc/NS3-C16S versus Luc/Parent replicon): 12 | Fold change in potency, EC50 ([9]; {}): 11.1 ± 1.0 | Fold change in potency, EC90 ([9]; {}): 11.3 ± 0.9 | decrease in the susceptibility [10]: 10-15 fold | increase of susceptibility on reversion of serine to cysteine at residue 16 of NS3 ([11]; C16 revertant versus S16 replicon): about 10 fold | EC50 ([11]; Hepatitis C virus): 20 nM | EC90 ([11]; Hepatitis C virus): 240 ± 10 nM | Fold change in EC50 [12]: 1.1 | reduction in the susceptibility (number of colonies formed) [13]: approximately 10 fold | EC50 [14]: 40 nM | Fold change in EC50 ([14]; Parental cell line (Table 1)): 1.0 | Fold change in EC50 ([14]; Parental cell line (Table 4)): 1.0 | Fold change in potency, EC50 ([15]; Luc/NS3-A39V versus Luc/Parent replicon, one experiment): 14 | Fold change in potency, EC50 ([15]; {}): 14.0 | Fold change in potency, EC90 ([15]; {}): 13.7 | reduction of replicase activity [16]: more than 50% | Fold change in EC50 ([17]; 806^R #6 (Selection 2), NS3 A39V): 18.6 | Fold change in EC50 ([17]; 806^R #8 (Selection 2), NS3 A39V): 9.5 | Fold change in EC50 ([17]; 806^R #9 (Selection 2), NS3 A39V): 11.5 | Fold change in EC50 ([17]; 806^R #22 (Selection 1), NS3 C16S): 13.9 | Fold change in EC50 ([17]; 806^R #23 (Selection 1), NS3 C16S): 18.6 | Fold change in EC50 ([17]; 806^R #24 (Selection 1), NS3 C16S): 11.2 | Fold change in EC50 ([17]; 806^R #25 (Selection 1), NS3 C16S): 14.9 | Fold change in EC50 ([17]; 806^R #28 (Selection 1), NS3 C16S): 21.3 | Average fold change in EC50 ([17]; average over 806^R cell lines): 14.9

COc1ccc2c(O[C@@H]3C[C@H]4C(=O)N[C@]5(C(=O)O)C[C@H]5/C=C\CCCCC[C@H](NC(=O)OC5CCCC5)C(=O)N4C3)cc(-c3csc(NC(C)C)n3)nc2c1 [BILN 2061]
Fold change in EC50 [1]: 1.4 | Fold change in EC50 [3]: 1.1 | Fold change in EC50 [4]: >100 | Fold change in EC50 [6]: 2.8 | Fold change in EC50 [12]: >100 | EC50 [14]: 1.2 nM | Fold change in EC50 ([14]; Parental cell line (Table 4)): 1.0

C[C@@]1(O)[C@H](O)[C@@H](CO)O[C@H]1n1ccc(N)nc1=O [NM107]
Fold change in EC50 [1]: >68.7 | Fold change in EC50 [3]: 30.7 | Fold change in EC50 ([14]; Parental cell line (Table 4)): 1.0

CCC[C@H](NC(=O)[C@@H]1[C@H]2CCC[C@H]2CN1C(=O)[C@@H](NC(=O)[C@@H](NC(=O)c1cnccn1)C1CCCCC1)C(C)(C)C)C(=O)C(=O)NC1CC1 [VX-950]
Fold change in EC50 [3]: 0.3 | Fold change in EC50 [6]: 2.3 | Fold change in EC50 [12]: 2.9 | EC50 [14]: 610 nM | Fold change in EC50 ([14]; Parental cell line (Table 4)): 1.0

B1: HCV NS4A protein (other)
chain: T1 sequence (Q9WMX2 1658-1711 limits assumed)
notes: also called hepatitis C virus NS4A; monomer of p14
binding result [18]: binds

B2: NS4A-cFLAG (HCV NS4A (1b) with C-terminal FLAG antibody tag) (other)
chain: STWVLVGGVLAALAAYCLTTGSVVIVGRIILSGKPAIIPDREVLYREFDEMEECDYKDDDDK
notes: also called NS4A-FLAG; product of pCl-neo-NS4A-cFlag
binding result [19]: binds
